{
  "source": "patent US12552833B2",
  "about": "“Dynamics within supramolecuar IKVAV matrices enhance functional maturation of human IPSCS-derived neurons and regeneration” (Northwestern University, priority 2019, dated 2026)",
  "key": {"human MNs [1]": {"test_system": "human MNs", "assay": "Tandem mass spectrometry and gene ontology (GO) analysis of proteins differentially expressed in MNs cultured on A2G2 IKVAV PA vs. laminin coated surfaces", "format": "cell-based", "details": "A2G2 condition vs. laminin; 21 out of the 58 GO terms of Ho et al., 2016 (FIG. 31A)", "description": "FIGS. 31A-31C Assessment of MN maturation through gene ontology (GO) analysis of proteins differentially expressed in MNs cultured on A2G2 IKVAV PA and laminin coated surfaces. Tandem mass spectrometry analysis uncovered differentially expressed proteins between MNs plated on […] surfaces, that are associated with GO terms that have been directly linked to human MN maturation (Ho et al., 2016). (FIG. 31A) From the differentially expressed proteins in A2G2 condition, 21 out of the 58 (36%) GO terms associated with maturation of human MNs were identified. […] Horizontal bar plots display the p-values of the MN maturation related GO terms identified in the protein data set. Pie charts represent the percentage of GO terms obtained in this study compared to the previously described GO terms associated with MN maturation (Ho et al., 2016).\nMotor neurons (MN) differentiation: At 70% confluency, iPSC cultures were dissociated using Accutase and plated at a density of 10^5 cells/cm^2 with 10 μM ROCK inhibitor (Y-27632, DNSK International) in mTeSR1. Next day (day 0), media was replaced with N2B27 medium (50% DMEM:F12, 50% Neurobasal, supplemented with NEAA, Glutamax, N2 and B27; Gibco, Life Technologies) containing 10 μM SB431542 (DNSK International), 100 nM LDN-193189 (DNSK International), 1 μM Retinoic Acid (RA, Sigma) and 1 μM of Smoothened-Agonist (SAG, DNSK International). […]"}, "human MNs [2]": {"test_system": "human MNs", "assay": "Patch-electrode recording of action potentials from human MNs grown on A2G2 and laminin matrices", "format": "cell-based", "details": "MNs grown on A2G2 compared with laminin matrices, day 48-49 (FIG. 4L)", "procedure": "Motor neurons (MN) differentiation: At 70% confluency, iPSC cultures were dissociated using Accutase and plated at a density of 10^5 cells/cm^2 with 10 μM ROCK inhibitor (Y-27632, DNSK International) in mTeSR1. Next day (day 0), media was replaced with N2B27 medium (50% DMEM:F12, 50% Neurobasal, supplemented with NEAA, Glutamax, N2 and B27; Gibco, Life Technologies) containing 10 μM SB431542 (DNSK International), 100 nM LDN-193189 (DNSK International), 1 μM Retinoic Acid (RA, Sigma) and 1 μM of Smoothened-Agonist (SAG, DNSK International). Culture medium was daily changed until day 6, then was switched to N2B27 medium supplemented with 1 μM RA, 1 μM SAG, 5 μM DAPT (DNSK International) and 4 μM SU5402 (DNSK International). Cells were fed daily until day 14, when MNs were dissociated using TrypLE Express (Gibco, Life Technologies) supplemented with DNase I (Worthington) and plated onto pre-coated poly-D-Lysine/laminin or the distinct IKVAV-coated surfaces. MNs were feed 3 times a week with neurobasal medium (NBM: NEAA, Glutamax, N2 and B27) supplemented with Ascorbic acid (0.2 μg/ml; Sigma-Aldrich), BDNF, CNTF and GDNF (10 ng/mL, R&D systems) and 1% fetal bovine serum (FBS)."}},
  "note": "No end group written: not given here. *: point of attachment. Palmitoyl = CCCCCCCCCCCCCCCC(=O)*",
  "data": [
    {"substance": "C16A2G2E4GIKVAV (Palmitoyl-AAGGEEEEGIKVAV) [IKVAV peptide amphiphile with A2G2 structural segment]", "values": [
      {"measurement": "GO terms associated with maturation of human MNs identified from the differentially expressed proteins", "setting": "human MNs [1]", "result": 36, "unit": "%"},
      {"measurement": "action potential amplitude", "setting": "human MNs [2]", "result": "significantly larger amplitude"},
      {"measurement": "action potential rates of rise and fall", "setting": "human MNs [2]", "result": "faster rates of rise and fall"}
    ]}
  ]
}
